According to BindingDB's records for patent US20250313563 (The Broad Institute, 2025):
Values joined by “and” are separate entries in the source; they are usually repeats but may differ in a detail not shown here. Identical values can stand only once.

Columns and labels:
[1] = target: Glycogen synthase kinase-3 beta (Homo sapiens, UniProt P49841); experiment: TR-FRET Assay
In short: (§1)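 TR-FRET readout: streptavidin-d2 (40 nM in added detection mix) plus Tb-anti-pSer641 Ab (2 nM in mix). Steps were 30 min compound preincubation, kinase reaction, then EDTA stop.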

[2] = target: Glycogen synthase kinase-3 alpha (Homo sapiens, UniProt P49840); experiment: TR-FRET Assay
Chain of Glycogen synthase kinase-3 alpha (P49840 whole entry): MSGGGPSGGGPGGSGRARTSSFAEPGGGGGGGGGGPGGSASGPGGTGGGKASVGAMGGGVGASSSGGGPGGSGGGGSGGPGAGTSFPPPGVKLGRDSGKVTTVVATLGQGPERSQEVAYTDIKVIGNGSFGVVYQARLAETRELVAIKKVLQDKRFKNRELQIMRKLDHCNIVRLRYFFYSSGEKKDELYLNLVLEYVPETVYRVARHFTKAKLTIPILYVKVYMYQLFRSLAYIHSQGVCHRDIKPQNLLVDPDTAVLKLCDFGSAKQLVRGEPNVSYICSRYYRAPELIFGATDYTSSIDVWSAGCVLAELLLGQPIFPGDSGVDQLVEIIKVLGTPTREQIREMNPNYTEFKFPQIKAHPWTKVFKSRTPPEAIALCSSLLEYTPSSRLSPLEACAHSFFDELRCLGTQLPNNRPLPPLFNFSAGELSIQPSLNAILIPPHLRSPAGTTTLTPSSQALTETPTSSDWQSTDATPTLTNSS
In short: as §1

Chain of Glycogen synthase kinase-3 beta (P49841 whole entry): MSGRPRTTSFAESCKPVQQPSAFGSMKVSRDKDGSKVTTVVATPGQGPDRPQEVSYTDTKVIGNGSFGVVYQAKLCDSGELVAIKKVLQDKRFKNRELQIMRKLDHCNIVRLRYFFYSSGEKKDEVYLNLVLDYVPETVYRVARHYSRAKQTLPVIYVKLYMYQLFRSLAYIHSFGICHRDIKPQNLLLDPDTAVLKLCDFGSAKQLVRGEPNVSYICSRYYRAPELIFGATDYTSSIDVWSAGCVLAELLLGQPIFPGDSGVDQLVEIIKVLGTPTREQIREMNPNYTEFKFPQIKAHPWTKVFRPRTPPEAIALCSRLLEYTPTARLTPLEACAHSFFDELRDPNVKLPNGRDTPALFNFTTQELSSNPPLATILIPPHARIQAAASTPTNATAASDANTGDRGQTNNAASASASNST

SMILES | IC50 [1] | IC50 [2]
CCC1(c2cccc(N(C)c3ccc(C)nc3)c2)C2=CN=NC2NC2=C1C(=O)CC(C)(C)C2 (configuration not stated) [US20250313563, Compound 918272] | 100 to 1000 nM | 100 to 1000 nM
CC1(C)CC(=O)C2=C(C1)NC1=C(CN=N1)C21CC(C(F)(F)F)C1 (configuration not stated) [US20250313563, Compound 874527] | 100 to 1000 nM | < 100 nM
CC[C@@]1(c2cccc(-c3ccncc3C)c2)C2=CN=NC2NC2=C1C(=O)N[C@@]1(CCCOC1)C2 (some centres not stated) [US20250313563, Compound 947909] | 1000 to 5000 nM | 100 to 1000 nM
CC[C@]1(c2cccc(N(C)c3ncccn3)c2)C2=C(CC(C)(C)NC2=O)NC2N=NC(Cl)=C21 (some centres not stated) [US20250313563, Compound 951592] | > 5000 nM | > 5000 nM
CC[C@@]1(c2cccc(-c3cc(C)ncc3F)c2)C2=CN=NC2NC2=C1C(=O)NC(C)(C)C2 (some centres not stated) [US20250313563, Compound 947822] | > 5000 nM | 100 to 1000 nM
CCN(c1cccnc1)c1cccc([C@@]2(CC)C3=CN=NC3NC3=C2C(=O)CC(C)(C)C3)c1 (some centres not stated) [US20250313563, Compound 917088] | 1000 to 5000 nM | 100 to 1000 nM
C[C@H]1CC(=O)C2=C(C1)NC1=C(CN=N1)C21CCOCC1 [US20250313563, Compound 912078] | 100 to 1000 nM | 100 to 1000 nM
CC[C@]1(c2cccc(N(C)c3ccccn3)c2)C2=CN=NC2NC2=C1C(=O)CC(C)(C)C2 (some centres not stated) [US20250313563, Compound 875608] | > 5000 nM | 1000 to 5000 nM
CC[C@]1(c2cccc(OC)c2)C2=C(CC(C)(C)CC2=O)NC2N=NC(C(F)(F)F)=C21 (some centres not stated) [US20250313563, Compound 884118] | 1000 to 5000 nM | 100 to 1000 nM
CCC1(c2cccc(-c3cnn(C)c3C)c2)C2=CN=NC2NC2=C1C(=O)NC(C)(C)C2 (configuration not stated) [US20250313563, Compound 944021] | 100 to 1000 nM | < 100 nM
CC[C@]1(c2cccc(N(C)c3cccnn3)c2)C2=CN=NC2NC2=C1C(=O)CC(C)(C)C2 (some centres not stated) [US20250313563, Compound 911975] | 1000 to 5000 nM | 100 to 1000 nM
CC1(C)CC(=O)C2=C(C1)NC1=C(CN=N1)C21COC2(CN(C(=O)CC3CCCCC3)C2)C1 (configuration not stated) [US20250313563, Compound 947305] | < 100 nM | < 100 nM
CC[C@@]1(c2cccc(C)c2)C2=CN=NC2NC2=C1C(=O)CC1(CCCC1)C2 (some centres not stated) [US20250313563, Compound 801312] | 100 to 1000 nM | < 100 nM
CCC1(c2cccc(Cc3ncccn3)c2)C2=CN=NC2NC2=C1C(=O)NC(C)(C)C2 (configuration not stated) [US20250313563, Compound 950151] | 1000 to 5000 nM | < 100 nM
CC1(C)CC(=O)C2=C(C1)NC1=C(CN=N1)[C@@]21CCO[C@@H](C(C)(C)C)C1 [US20250313563, Compound 912113] | 1000 to 5000 nM | 1000 to 5000 nM
CCC1(c2cccc(C(F)(F)F)c2)C2=CN=NC2NC2=C1C(=O)N(c1cscn1)CC2 (configuration not stated) [US20250313563, Compound 950777] | 100 to 1000 nM | < 100 nM
CC1(C)CC(=O)C2=C(C1)NC1N=NC=C1[C@@]21CCCc2ccccc21 (some centres not stated) [US20250313563, Compound 930565] | > 5000 nM | 1000 to 5000 nM
CC[C@@]1(c2cccc(-c3cn(C)nc3C(F)(F)F)c2)C2=CN=NC2NC2=C1C(=O)NC(C)(C)C2 (some centres not stated) [US20250313563, Compound 950563] | < 100 nM | < 100 nM
CC1(C)CC(=O)C2=C(C1)NC1=C(CN=N1)[C@@]21COC2(CN(C(=O)c3ccccc3)C2)C1 [US20250313563, Compound 943955] | < 100 nM | < 100 nM
CC1(C)CC(=O)C2=C(C1)NC1=C(CN=N1)C21CCc2c(F)cccc21 (configuration not stated) [US20250313563, Compound 801357] | > 1670 nM | 100 to 1000 nM
CC[C@]1(c2cccc(-c3ccncc3F)c2)C2=C(CC(C)(C)NC2=O)NC2N=NC(C)=C21 (some centres not stated) [US20250313563, Compound 947805] | 1000 to 5000 nM | 100 to 1000 nM
CCc1cccc([C@@]2(CC)C3=CN=NC3NC3=C2C(=O)CC(C)(C)C3)c1 (some centres not stated) [US20250313563, Compound 949401] | < 100 nM and 1000 to 5000 nM | < 100 nM and 100 to 1000 nM
CC[C@]1(c2cccc(-c3cc(C)nn3-c3ccccc3)c2)C2=CN=NC2NC2=C1C(=O)NC(C)(C)C2 (some centres not stated) [US20250313563, Compound 951845] | 100 to 1000 nM | 100 to 1000 nM

SMILES | IC50 [1] | IC50 [2]
CC1(C)CC(=O)C2=C(C1)NC1=C(CN=N1)[C@@]21COC2(CN(C(=O)[C@H]3CC3(F)F)C2)C1 [US20250313563, Compound 948217] | 1000 to 5000 nM | 100 to 1000 nM
CC1(C)CC(=O)C2=C(C1)NC1=C(CN=N1)[C@@]21COC2(CN(C(=O)Cc3ccccc3)C2)C1 [US20250313563, Compound 948037] | < 100 nM | < 100 nM
CCC1(c2cccc(-c3cc(C)ncc3F)c2)C2=CN=NC2NC2=C1C(=O)NC(C)(C)C2 (configuration not stated) [US20250313563, Compound 947401] | 100 to 1000 nM and > 5000 nM | < 100 nM and 100 to 1000 nM
CCC1(c2cccc(N3CCCC3)c2)C2=C(CC(C)(C)NC2=O)NC2N=NC(C(F)(F)F)=C21 (configuration not stated) [US20250313563, Compound 947860] | < 100 nM and 100 to 1000 nM | < 100 nM
CC[C@]1(c2cccc(C(F)(F)F)c2)C2=CN=NC2NC2=C1C(=O)N(C)CC2 (some centres not stated) [US20250313563, Compound 917282] | 100 to 1000 nM | < 100 nM
CCC1(c2cccc(Oc3ncccn3)c2)C2=CN=NC2NC2=C1C(=O)CC(C)(C)C2 (configuration not stated) [US20250313563, Compound 947400] | < 100 nM | < 100 nM
CC[C@]1(c2cccc(-c3c(F)cncc3OC)c2)C2=C(N=NC2)NC2=C1C(=O)N(Cc1ccccc1)C2 [US20250313563, Compound 948549] | < 100 nM and 1000 to 5000 nM | < 100 nM and 100 to 1000 nM
CC[C@]1(c2cc(N(C)C(C)=O)ccc2F)C2=C(CC(C)(C)CC2=O)NC2N=NC(C)=C21 (some centres not stated) [US20250313563, Compound 929451] | > 5000 nM | > 5000 nM
CC1(C)CC(=O)C2=C(C1)NC1N=NC(Br)=C1[C@]21CCc2c(F)cccc21 (some centres not stated) [US20250313563, Compound 806939] | < 100 nM | < 100 nM
CC[C@@]1(c2cccc(N3CCOCC3)c2)C2=C(CC(C)(C)CC2=O)NC2N=NC(C)=C21 (some centres not stated) [US20250313563, Compound 889582] | 1000 to 5000 nM | 100 to 1000 nM
CC[C@@]1(c2cccc(C3=C4CC=C(Cl)C=C4N=CC3)c2)C2=CN=NC2NC2=C1C(=O)NC(C)(C)C2 (some centres not stated) [US20250313563, Compound 948368] | 100 to 1000 nM | < 100 nM
Cc1nc(C)c(S(=O)(=O)N2CCC3(CC2)C2=C(N=NC2)NC2=C3C(=O)CC(C)(C)C2)s1 [US20250313563, Compound 947259] | < 100 nM | < 100 nM
CC[C@@]1(c2cccc(C(F)(F)F)c2)C2=CN=NC2NC2=C1C(=O)NC[C@H]2C (some centres not stated) [US20250313563, Compound 945385] | > 5000 nM | > 5000 nM
CC[C@@]1(c2cccc(-c3ccncc3C)c2)C2=CN=NC2NC2=C1C(=O)NC1(CCCC1)C2 (some centres not stated) [US20250313563, Compound 948022] | < 100 nM and 100 to 1000 nM | < 100 nM
CC[C@@]1(c2cccc(N(C)c3ccc(C(F)(F)F)nc3)c2)C2=CN=NC2NC2=C1C(=O)CC(C)(C)C2 (some centres not stated) [US20250313563, Compound 945474] | 100 to 1000 nM | < 100 nM
CC1(C)CC(=O)C2=C(C1)NC1=C(CN=N1)C21CCN(S(C)(=O)=O)C1 (configuration not stated) [US20250313563, Compound 912092] | < 100 nM | < 100 nM
CC1(C)CC(=O)C2=C(C1)NC1=C(CN=N1)C21CCN(S(=O)(=O)c2ccc(F)cc2)CC1 [US20250313563, Compound 893311] | < 100 nM and 1000 to 5000 nM | < 100 nM and 100 to 1000 nM
CC1(C)CC(=O)C2=C(C1)NC1=C(CN=N1)[C@]21CC[C@@H](c2ccncc2)CC1 [US20250313563, Compound 949320] | 1000 to 5000 nM | 100 to 1000 nM
CC[C@H]1C[C@]2(CO1)C1=C(N=NC1)NC1=C2C(=O)CC(C)(C)C1 [US20250313563, Compound 913214] | 1000 to 5000 nM | 100 to 1000 nM
CCC1(c2cccc(N3CC(C)(C)C3C(C)C)c2)C2=CN=NC2NC2=C1C(=O)CC(C)(C)C2 (configuration not stated) [US20250313563, Compound 902969] | 1000 to 5000 nM | 100 to 1000 nM
CC(C)(C)CC1N=NC2=C1[C@@](C)(c1cccc(S(=O)(=O)C(F)(F)F)c1)C1=C(CC(C)(C)CC1=O)N2 (some centres not stated) [US20250313563, Compound 126396] | > 5000 nM | > 5000 nM
CC[C@]1(c2cccc(-c3ccncc3)c2)C2=CN=NC2NC2=C1C(=O)C[C@H](C)C2 (some centres not stated) [US20250313563, Compound 874318] | 100 to 1000 nM | < 100 nM
Cn1cncc1-c1cccc([C@@]2(C)C3=C(CC(C)(C)CC3=O)NC3=C2C(CC(C)(C)C)N=N3)c1 (some centres not stated) [US20250313563, Compound 126015] | > 5000 nM | > 5000 nM
